# Measured values taken from publication PMC9599461, “Stereoselectivity in the Membrane Transport of Phenylethylamine Derivatives by Human Monoamine Transporters and Organic Cation Transporters 1, 2, and 3” (Biomolecules, 2022).
# Values joined by “and” are separate entries in the source; they are usually repeats but may differ in a detail not shown here. Equal values may be shown once.
# B1: DAT (Homo sapiens) (protein)
# chain: MSKSKCSVGLMSSVVAPAKEPNAVGPKEVELILVKEQNGVQLTSSTLTNPRQSPVEAQDRETWGKKIDFLLSVIGFAVDLANVWRFPYLCYKNGGGAFLVPYLLFMVIAGMPLFYMELALGQFNREGAAGVWKICPILKGVGFTVILISLYVGFFYNVIIAWALHYLFSSFTTELPWIHCNNSWNSPNCSDAHPGDSSGDSSGLNDTFGTTPAAEYFERGVLHLHQSHGIDDLGPPRWQLTACLVLVIVLLYFSLWKGVKTSGKVVWITATMPYVVLTALLLRGVTLPGAIDGIRAYLSVDFYRLCEASVWIDAATQVCFSLGVGFGVLIAFSSYNKFTNNCYRDAIVTTSINSLTSFSSGFVVFSFLGYMAQKHSVPIGDVAKDGPGLIFIIYPEAIATLPLSSAWAVVFFIMLLTLGIDSAMGGMESVITGLIDEFQLLHRHRELFTLFIVLATFLLSLFCVTNGGIYVFTLLDHFAAGTSILFGVLIEAIGVAWFYGVGQFSDDIQQMTGQRPSLYWRLCWKLVSPCFLLFVVVVSIVTFRPPHYGAYIFPDWANALGWVIATSSMAMVPIYAAYKFCSLPGSFREKLAYAIAPEKDRELVDRGEVRQFTLRHWLKV
# What was measured:
# NET = NET (Homo sapiens, UniProt P23975); test: Stereoselective uptake into NET-overexpressing HEK293 cells;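 also: intracellular enantiomers quantified in cell lysates by chiral HPLC-MS/MS after a 2 min substrate incubation, with uptake normalized to total cellular protein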
# Chain of NET (P23975 whole entry): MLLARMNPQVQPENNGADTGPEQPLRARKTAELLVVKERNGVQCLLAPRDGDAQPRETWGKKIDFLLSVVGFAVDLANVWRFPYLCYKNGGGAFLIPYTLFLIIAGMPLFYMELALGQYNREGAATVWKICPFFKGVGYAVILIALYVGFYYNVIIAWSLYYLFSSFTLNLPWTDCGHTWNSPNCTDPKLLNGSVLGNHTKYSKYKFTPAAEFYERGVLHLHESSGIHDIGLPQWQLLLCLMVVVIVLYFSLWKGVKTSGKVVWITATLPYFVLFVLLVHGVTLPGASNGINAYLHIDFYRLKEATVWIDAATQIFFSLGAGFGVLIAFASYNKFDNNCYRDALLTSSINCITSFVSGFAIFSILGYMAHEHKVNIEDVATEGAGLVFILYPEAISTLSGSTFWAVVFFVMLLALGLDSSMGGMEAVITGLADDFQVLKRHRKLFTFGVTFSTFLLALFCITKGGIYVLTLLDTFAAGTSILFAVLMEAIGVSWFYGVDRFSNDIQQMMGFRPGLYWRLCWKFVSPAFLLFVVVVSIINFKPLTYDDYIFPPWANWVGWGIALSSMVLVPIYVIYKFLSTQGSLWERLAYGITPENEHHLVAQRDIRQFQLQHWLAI
# SERT [1] = target: T1, SERT (Homo sapiens, UniProt P31645); test: Stereoselective uptake into SERT-overexpressing HEK293 cells;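 also: uptake into HEK293 cells stably expressing human SERT over 2 min, enantiomers measured in cell lysate by chiral HPLC-MS/MS, normalized to total protein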
# T1 sequence (P31645 whole entry): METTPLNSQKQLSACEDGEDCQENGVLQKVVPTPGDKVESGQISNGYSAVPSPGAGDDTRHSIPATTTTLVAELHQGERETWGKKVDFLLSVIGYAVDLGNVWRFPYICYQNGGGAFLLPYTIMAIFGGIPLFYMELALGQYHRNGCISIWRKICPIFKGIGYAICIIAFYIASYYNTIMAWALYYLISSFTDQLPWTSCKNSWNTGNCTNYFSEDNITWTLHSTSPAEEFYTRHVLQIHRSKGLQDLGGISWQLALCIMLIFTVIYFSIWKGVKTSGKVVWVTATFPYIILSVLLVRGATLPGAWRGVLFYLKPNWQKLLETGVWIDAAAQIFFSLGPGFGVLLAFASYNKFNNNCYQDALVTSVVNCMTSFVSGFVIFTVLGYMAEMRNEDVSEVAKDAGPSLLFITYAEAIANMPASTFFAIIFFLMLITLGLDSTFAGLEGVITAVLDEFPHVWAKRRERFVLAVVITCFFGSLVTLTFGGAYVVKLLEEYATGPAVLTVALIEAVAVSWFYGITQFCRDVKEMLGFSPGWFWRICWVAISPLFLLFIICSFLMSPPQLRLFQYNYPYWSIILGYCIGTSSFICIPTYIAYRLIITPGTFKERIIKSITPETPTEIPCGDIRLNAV
# Protocol: (§1) All transport experiments were carried out in HEK293 cells stably overexpressing human MATs or OCTs. […] All cells were regularly cultivated in DMEM supplemented with 10% (v/v) FCS, penicillin (100 U/mL) and streptomycin (100 μg/mL)and kept in culture for no longer than 30 passages.
# (§2) For the uptake experiments, 300,000 cells were plated in poly-D-lysine precoated 24-well plates 48 h ahead of the transport experiment. On the day of experiment, cells were initially washed once with 37 °C pre-warmed HBSS+ (Hanks buffered salt solution supplemented with 10 mM HEPES) and subsequently incubated with the substrates dissolved in pre-warmed HBSS+ for exactly two minutes. Incubation was stopped by adding ice-cold HBSS+ followed by two washing steps. After this, cells were lysed with 80% acetonitrile containing 10 ng/mL milnacipran as internal standard for high-performance liquid chromatography coupled to tandem mass spectrometry (HPLC-MS/MS) analysis. For every experiment, two additional wells per cell line were lysed using RIPA buffer for protein quantification. Total protein was quantified using the bicinchoninic acid assay [42]. This was later used for normalization of the uptake data.
# (§3) Intracellularly accumulated test substances were quantified by HPLC-MS/MS analysis using a Shimadzu Nexera HPLC system with a SIL-30AC autosampler, a CTO-20AC column oven, a LC-30AD pump, and a CBM-20A controller (Shimadzu, Kyoto, Japan). […] CBH HPLC column (100 × 3 mm inner dimension with 5 μM particle size; Sigma-Aldrich, Darmstadt, Germany) with a corresponding 10 × 3 mm guard column. Reversed phased chromatography was carried out using an ammonium acetate (NH4Ac) buffered aqueous mobile phase with isopropyl alcohol (IPA) as organic solvent. […] The order of elution of the enantiomers was obtained from available reference literature [43] or by applying enantiopure reference compounds to the chiral HPLC.
# (§4) Detection was performed with an API 4000 tandem mass spectrometer (AB SCIEX, Darmstadt, Germany) operating in multiple-reaction-monitoring mode. Quantification was performed using the Analyst 1.6.2 software (AB SCIEX, Darmstadt, Germany) and quantified by comparison to standard curves with known concentrations.
# (§5) All uptake data were normalized to protein content to account for variation in the number of seeded sells. Transporter-mediated net uptake was calculated by subtracting uptake into empty vector-transfected control cells from uptake into transporter-transfected cells. […] Vmax refers to the maximum transport velocity and Km is defined as the substance concentration required to reach half of vmax. The intrinsic clearance Clint was calculated as the quotient of vmax over Km.
# OCT1 = target: T2, OCT1 (Homo sapiens, UniProt O15245); test: Stereoselective uptake into OCT1-overexpressing HEK293 cells; details: for selectivity ratio at 2 min: human;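 as to all read-outs here: enantiomers quantified inside cells by chiral HPLC-MS/MS, uptake normalized to total protein from bicinchoninic acid assay, substrates applied in HBSS+ buffer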
# T2 sequence (O15245 1-554): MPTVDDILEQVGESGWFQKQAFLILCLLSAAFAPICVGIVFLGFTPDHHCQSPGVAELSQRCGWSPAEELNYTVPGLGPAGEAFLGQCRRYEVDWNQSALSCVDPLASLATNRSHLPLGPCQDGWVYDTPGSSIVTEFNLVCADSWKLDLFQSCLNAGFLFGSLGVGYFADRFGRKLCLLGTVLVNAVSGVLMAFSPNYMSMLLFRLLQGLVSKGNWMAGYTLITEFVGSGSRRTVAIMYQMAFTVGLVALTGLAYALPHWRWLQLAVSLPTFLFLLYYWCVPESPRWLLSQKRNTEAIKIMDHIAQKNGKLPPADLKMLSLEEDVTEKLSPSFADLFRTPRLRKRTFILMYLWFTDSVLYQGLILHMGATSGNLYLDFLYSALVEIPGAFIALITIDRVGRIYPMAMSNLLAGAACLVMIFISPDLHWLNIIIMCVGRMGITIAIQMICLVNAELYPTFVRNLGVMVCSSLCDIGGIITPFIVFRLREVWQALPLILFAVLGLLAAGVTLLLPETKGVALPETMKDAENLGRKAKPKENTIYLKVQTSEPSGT
# [2] = system: OCT2 wild-type versus A270S variant; test: in vitro; details: human, Transporter selectivity, OCT2 wild-type versus A270S, 100 μM racemic substance, two minutes; given as for WT
# DAT = DAT (Homo sapiens, UniProt Q01959); test: Stereoselective uptake into DAT-overexpressing HEK293 cells;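 also: intracellular accumulation measured by chiral HPLC-MS/MS in stably transfected HEK293 cells, normalized to total protein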
# SERT [3] = target: T1, SERT
# Protocol: as §1, §2, §3, §4, §5
# SERT [4] = target: T1, SERT; test: in vitro
# Protocol: as §1, §2, §3, §4, §5
# OCT2 [5] = target: T3, OCT2 (Homo sapiens, UniProt O15244); test: Stereoselective uptake into OCT2 (wild-type)-overexpressing HEK293 cells; details: OCT2; for selectivity ratio at 2 min: human, ratio between enantiomers
# T3 sequence (O15244 1-555 S270A): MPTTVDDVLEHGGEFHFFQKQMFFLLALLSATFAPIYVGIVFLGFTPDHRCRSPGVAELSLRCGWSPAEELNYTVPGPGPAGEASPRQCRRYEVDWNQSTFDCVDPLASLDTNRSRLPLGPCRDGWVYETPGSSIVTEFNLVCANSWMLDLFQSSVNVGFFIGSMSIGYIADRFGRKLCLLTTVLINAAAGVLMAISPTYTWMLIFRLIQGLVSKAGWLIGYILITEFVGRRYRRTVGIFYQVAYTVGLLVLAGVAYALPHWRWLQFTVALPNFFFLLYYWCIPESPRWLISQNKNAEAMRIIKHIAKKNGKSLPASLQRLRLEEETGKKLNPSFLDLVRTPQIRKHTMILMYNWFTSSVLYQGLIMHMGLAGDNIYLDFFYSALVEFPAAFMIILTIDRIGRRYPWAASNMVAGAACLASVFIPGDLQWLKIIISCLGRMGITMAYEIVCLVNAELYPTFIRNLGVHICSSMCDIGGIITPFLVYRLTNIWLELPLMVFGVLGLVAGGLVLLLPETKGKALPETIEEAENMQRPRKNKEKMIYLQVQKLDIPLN
# OCT3 = target: T4, OCT3 (Homo sapiens, UniProt O75751); test: Stereoselective uptake into OCT3-overexpressing HEK293 cells;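 also: intracellular accumulation in HEK293 cells measured by chiral HPLC-MS/MS after a 2 min substrate exposure at 37 °C, uptake normalized to total protein (bicinchoninic acid assay)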
# T4 sequence (O75751 1-556): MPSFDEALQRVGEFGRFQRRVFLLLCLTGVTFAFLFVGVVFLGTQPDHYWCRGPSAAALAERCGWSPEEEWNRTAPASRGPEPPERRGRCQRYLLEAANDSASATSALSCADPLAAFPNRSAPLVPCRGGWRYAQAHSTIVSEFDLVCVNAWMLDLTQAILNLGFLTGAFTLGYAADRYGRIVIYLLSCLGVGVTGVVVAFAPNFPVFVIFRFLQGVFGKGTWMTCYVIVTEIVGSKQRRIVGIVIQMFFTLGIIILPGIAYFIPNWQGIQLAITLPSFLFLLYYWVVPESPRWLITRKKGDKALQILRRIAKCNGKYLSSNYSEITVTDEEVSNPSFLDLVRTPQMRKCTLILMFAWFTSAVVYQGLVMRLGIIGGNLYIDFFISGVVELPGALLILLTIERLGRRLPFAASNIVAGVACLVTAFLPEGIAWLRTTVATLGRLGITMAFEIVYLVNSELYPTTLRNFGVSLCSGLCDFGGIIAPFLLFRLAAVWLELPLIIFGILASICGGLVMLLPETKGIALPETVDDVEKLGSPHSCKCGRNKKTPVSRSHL
# Protocol: as §1, §2
# Intracellularly accumulated test substances were quantified by HPLC-MS/MS analysis using a Shimadzu Nexera HPLC system with a SIL-30AC autosampler, a CTO-20AC column oven, a LC-30AD pump, and a CBM-20A controller (Shimadzu, Kyoto, Japan). Stereoselective chromatography was carried out on a [sequence] CBH HPLC column (100 × 3 mm inner dimension with 5 μM particle size; Sigma-Aldrich, Darmstadt, Germany) with a corresponding 10 × 3 mm guard column. Reversed phased chromatography was carried out using an ammonium acetate (NH4Ac) buffered aqueous mobile phase with isopropyl alcohol (IPA) as organic solvent. […] The order of elution of the enantiomers was obtained from available reference literature [43] or by applying enantiopure reference compounds to the chiral HPLC. […] Given the structural similarity of the investigated substances and the fact that separation was performed on the same column with almost identical mobile phases, we assume that this order of elution for our compound set is always the (R)- before the (S)-enantiomer.
# as §4
# All uptake data were normalized to protein content to account for variation in the number of seeded sells. Transporter-mediated net uptake was calculated by subtracting uptake into empty vector-transfected control cells from uptake into transporter-transfected cells. Kinetic parameters were then determined after non-linear regression following the Michaelis–Menten equation (v = vmax × [S]/(Km + [S])) using GraphPad Prism (Version 5.01 for Windows, GraphPad Software, La Jolla, CA, USA). Vmax refers to the maximum transport velocity and Km is defined as the substance concentration required to reach half of vmax. The intrinsic clearance Clint was calculated as the quotient of vmax over Km.
# OCT2 A270S variant = test: in vitro; details: human, Stereoselectivity OCT2_A270S, 100 μM racemic substance, two minutes; uptake ratio of enantiomers, given as for (R)
# OCT2 (wild-type) = target: T5, OCT2 (wild-type) (Homo sapiens, UniProt O15244); test: Stereoselective uptake into OCT2 (wild-type)-overexpressing HEK293 cells; details: human, Stereoselectivity OCT2_WT, 100 μM racemic substance, two minutes; uptake ratio of enantiomers, given as for (R)
# T5 sequence (O15244 1-555 S270A): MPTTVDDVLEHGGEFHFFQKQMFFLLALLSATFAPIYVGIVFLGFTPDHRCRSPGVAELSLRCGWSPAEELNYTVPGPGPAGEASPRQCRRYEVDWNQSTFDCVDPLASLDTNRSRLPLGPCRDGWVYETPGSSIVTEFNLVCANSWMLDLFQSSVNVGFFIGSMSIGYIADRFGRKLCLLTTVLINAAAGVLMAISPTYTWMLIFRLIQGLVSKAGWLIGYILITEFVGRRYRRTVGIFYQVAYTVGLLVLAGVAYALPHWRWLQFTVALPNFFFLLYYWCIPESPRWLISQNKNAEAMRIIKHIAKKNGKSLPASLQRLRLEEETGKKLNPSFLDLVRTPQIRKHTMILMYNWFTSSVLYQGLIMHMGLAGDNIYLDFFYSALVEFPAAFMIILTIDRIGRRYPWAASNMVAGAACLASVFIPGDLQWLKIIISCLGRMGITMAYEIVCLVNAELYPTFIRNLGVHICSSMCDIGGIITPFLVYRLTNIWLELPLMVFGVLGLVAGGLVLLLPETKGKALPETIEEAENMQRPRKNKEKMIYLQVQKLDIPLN
# OCT2 [6] = target: T6, OCT2 (Homo sapiens, UniProt O15244, S270A); test: as above; details: OCT2; ratio between enantiomers, given as for (R) or for 1
# T6 sequence (O15244 1-555 S270A): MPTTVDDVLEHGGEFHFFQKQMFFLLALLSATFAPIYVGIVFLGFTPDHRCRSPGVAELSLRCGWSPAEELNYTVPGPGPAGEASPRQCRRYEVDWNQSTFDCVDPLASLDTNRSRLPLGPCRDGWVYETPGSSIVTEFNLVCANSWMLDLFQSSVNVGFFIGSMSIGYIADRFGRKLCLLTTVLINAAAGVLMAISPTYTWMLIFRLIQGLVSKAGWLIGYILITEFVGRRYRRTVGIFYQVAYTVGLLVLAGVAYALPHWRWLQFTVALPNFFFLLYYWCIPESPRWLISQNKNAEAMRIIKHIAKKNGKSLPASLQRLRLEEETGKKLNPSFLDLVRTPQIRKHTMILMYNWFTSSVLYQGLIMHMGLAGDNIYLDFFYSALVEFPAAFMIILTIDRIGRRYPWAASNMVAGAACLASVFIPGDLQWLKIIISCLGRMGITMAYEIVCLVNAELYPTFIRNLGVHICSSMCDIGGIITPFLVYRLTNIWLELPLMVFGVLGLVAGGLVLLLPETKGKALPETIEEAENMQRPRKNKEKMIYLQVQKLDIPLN
# Alpha-1 adrenoreceptor = details: cited from earlier work
# [7] = substrate: CNC[C@@H](O)c1ccc(O)cc1; test: cells, lysate or membranes; details: other: HEK293 cells overexpressing human DAT; racemic substrate, two minutes; net uptake minus empty vector control; 37.0 °C;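 also: intracellular accumulation measured by chiral HPLC-MS/MS in stably transfected HEK293 cells, normalized to total protein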
# [8] = substrate: NC[C@@H](O)c1ccc(O)cc1; test: cells, lysate or membranes; details: other: HEK293 cells overexpressing human DAT; racemic substrate, two minutes; net uptake minus empty vector control; 37.0 °C;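 also: intracellular accumulation measured by chiral HPLC-MS/MS in stably transfected HEK293 cells, normalized to total protein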
# [9] = substrate: NC[C@H](O)c1ccc(O)cc1; test: cells, lysate or membranes; details: other: HEK293 cells overexpressing human DAT; racemic substrate, two minutes; net uptake minus empty vector control; 37.0 °C;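 also: intracellular accumulation measured by chiral HPLC-MS/MS in stably transfected HEK293 cells, normalized to total protein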
# [10] = substrate: [H][C@](O)(CNC)c1ccc(O)cc1; test: cells, lysate or membranes; details: other: HEK293 cells overexpressing human DAT; racemic substrate, two minutes; net uptake minus empty vector control; 37.0 °C
# [11] = substrate: NCC(O)c1cccc(O)c1; test: cells, lysate or membranes; details: other: HEK293 cells overexpressing human DAT; racemic substrate, two minutes; net uptake minus empty vector control; 37.0 °C
molecule,measurement,setting,value
CNC[C@@H](O)c1cccc(O)c1 [(S)-Phenylephrine],Vmax ± SEM,"NET; HEK293 cells overexpressing human NET, racemic substrate, two minutes, net uptake",220 pmol × mg Protein^−1 × min^−1
same,Clint ± SEM,"NET; NET, quotient of vmax over Km",52.3 mL × g Protein^−1 × min^−1
same,Stereoselectivity Vmax,"NET; NET, ratio between enantiomers, given as for (R) or for 1",1.79 fold
same,selectivity ratio at 2 min,NET; human,1.43
same,Km,"NET; read-out: Km ± SEM, HEK293 cells overexpressing human NET, racemic substrate, two minutes, net uptake minus empty vector control",4.16 µM
same,Stereoselectivity Km,SERT [1],1.89 fold
same,Stereoselectivity Vmax,SERT [1],1.49 fold
same,Vmax ± SEM,SERT [1],529
same,Km,"SERT [1]; read-out: Km ± SEM, HEK293 cells overexpressing human SERT, racemic substrate, two minutes, net uptake minus empty vector control",173 µM
same,Clint ± SEM,"OCT1; OCT1, quotient of vmax over Km",8.85 mL × g Protein^−1 × min^−1
same,selectivity ratio at 2 min,OCT1; Stereoselectivity ClInt,1.11
same,selectivity ratio at 2 min,"OCT1; Stereoselectivity Km, OCT1, ratio between enantiomers, given as for (S) or for 2 (second-eluting)",1.02
same,selectivity ratio at 2 min,"OCT1; Stereoselectivity Vmax, OCT1, ratio between enantiomers, given as for (R) or for 1",1.08
same,"selectivity ratio at 2 min, 100 μM",[2],1.13
same,Clint ± SEM,"DAT; DAT, quotient of vmax over Km",11.6 mL × g Protein^−1 × min^−1
same,Stereoselectivity Vmax,"DAT; DAT, ratio between enantiomers, given as for (R) or for 1",1.56 fold
same,Stereoselectivity Km,"DAT; DAT, ratio between enantiomers, given as for (R) or for 1 (first-eluting)",1.06 fold
same,Vmax ± SEM,"DAT; HEK293 cells overexpressing human DAT, racemic substrate, two minutes, net uptake",392 pmol × mg Protein^−1 × min^−1
same,selectivity ratio at 2 min,DAT; human,1.48
same,Km,"DAT; read-out: Km ± SEM, HEK293 cells overexpressing human DAT, racemic substrate, two minutes, net uptake minus empty vector control",33.7 µM
same,Clint ± SEM,SERT [3],11.6
same,selectivity ratio,SERT [4],2.82
same,Clint ± SEM,OCT2 [5]; quotient of vmax over Km,27.3 mL × g Protein^−1 × min^−1
same,selectivity ratio at 2 min,"OCT2 [5]; Stereoselectivity ClInt, given as for (S) or for 2",1.02
same,selectivity ratio at 2 min,"OCT2 [5]; Stereoselectivity Km, given as for (R) or for 1 (first-eluting)",1.89
same,selectivity ratio at 2 min,"OCT2 [5]; Stereoselectivity Vmax, given as for (R) or for 1",2.04
same,Clint ± SEM,"OCT3; OCT3, quotient of vmax over Km",4.23 mL × g Protein^−1 × min^−1
same,Stereoselectivity Vmax,"OCT3; OCT3, ratio between enantiomers, given as for (R) or for 1",3.33 fold
same,Stereoselectivity Km,"OCT3; OCT3, ratio between enantiomers, given as for (R) or for 1 (first-eluting)",1.19 fold
same,selectivity ratio at 2 min,OCT3; human,2.79
NC[C@H](O)c1ccc(O)c(O)c1 [Norepinephrine],"selectivity ratio at 2 min, 100 μM",OCT2 A270S variant,2.06
same,"selectivity ratio at 2 min, 100 μM",OCT2 (wild-type),2.05
same,Stereoselectivity Vmax,OCT2 [6],approximately two-fold
same,Enantiomeric Activity Ratio (R/S) in Receptor Binding Alpha-1,Alpha-1 adrenoreceptor,33
CNCC(O)c1ccc(O)cc1 (centres unmarked) [Synephrine],"selectivity ratio at 2 min, 100 μM",OCT2 A270S variant,1
same,"selectivity ratio at 2 min, 100 μM",OCT2 (wild-type),1.17
same,Enantiomeric Activity Ratio (R/S) in Receptor Binding Alpha-1,Alpha-1 adrenoreceptor,75
B1,Km,[7],44.7 µM
same,Vmax,[7],463 pmol × mg Protein^−1 × min^−1
same,Km,[8],19.6 µM
same,Vmax,[8],1959 pmol × mg Protein^−1 × min^−1
same,Km,[9],20.5 µM
same,Vmax,[9],2054 pmol × mg Protein^−1 × min^−1
same,Km,[10],36.8 µM
same,Vmax,[10],849 pmol × mg Protein^−1 × min^−1
same,Km,[11],15.6 µM and 18.6 µM
same,Vmax,[11],2003 pmol × mg Protein^−1 × min^−1 and 3103 pmol × mg Protein^−1 × min^−1
